Converted amounts (≈) assume the structure as drawn. “And” between values parts separate entries of the source, which are not always exact repeats. Identical values can stand only once. One block for each compound: values may come before it.
How the values were obtained:
Assay in all cases: ≥ marks a high value that may be exact or a test limit, other limits are often not marked, values filed in µg/mL are converted to µM
[1] = system: Acinetobacter baumannii 4-MRGN
[2] = system: Pseudomonas aeruginosa ATCC 27853
Staphylococcus aureus = system: Staphylococcus aureus
[3] = system: Pseudomonas aeruginosa PAO1
[4] = system: Acinetobacter baumannii ATCC 19606
[5] = system: Pseudomonas aeruginosa ATCC 19660
[6] = system: Staphylococcus aureus ATCC 25923
[7] = system: Escherichia coli ATCC 25922
[8] = system: Pseudomonas aeruginosa AA43
Pseudomonas aeruginosa = system: Pseudomonas aeruginosa
[9] = system: Corynebacterium jeikeium ATCC BAA-949
[10] = system: Pseudomonas aeruginosa ME
[11] = system: Staphylococcus epidermidis
Candida albicans = system: Candida albicans
Staphylococcus hominis = system: Staphylococcus hominis
[12] = system: Pseudomonas aeruginosa R1
[13] = system: Staphylococcus epidermidis ATCC 12228
[14] = system: Pseudomonas aeruginosa DSM 1117
[15] = system: Pseudomonas aeruginosa CCARM 2109
[16] = system: Staphylococcus aureus DSM 1104
[17] = system: Staphylococcus aureus CCARM 3089
[18] = system: Staphylococcus aureus CCARM 3001
[19] = system: Escherichia coli KCTC 1682
[20] = system: Escherichia coli DSM 1103
[21] = system: Bacillus subtilis KCTC 3068
[22] = system: Staphylococcus epidermidis KCTC 1917
[23] = system: Salmonella typhimurium KCTC 1926
[24] = system: Pseudomonas aeruginosa CCARM 2095
[25] = system: Pseudomonas aeruginosa CCARM 2092
[26] = system: Pseudomonas aeruginosa KCTC 1637
[27] = system: Staphylococcus aureus KCTC 1621
[28] = system: Staphylococcus epidermidis DSM 1798
[29] = system: Staphylococcus aureus CCARM 3543
Klebsiella pneumoniae = system: Klebsiella pneumoniae
[30] = system: Salmonella enterica subsp. enterica serovar Typhimurium C77-31
[31] = system: Salmonella enterica subsp. enterica serovar Pullorum C79-13
Acinetobacter baumannii = system: Acinetobacter baumannii
[32] = system: Pseudomonas aeruginosa CICC 21625
Escherichia coli K88 = system: Escherichia coli K88
[33] = system: Pseudomonas aeruginosa CICC 21630
Escherichia coli = system: Escherichia coli
Escherichia coli K99 = system: Escherichia coli K99
[34] = system: Salmonella enterica subsp. enterica serovar Typhimurium ATCC 14028
Escherichia coli UB1005 = system: Escherichia coli UB1005
[35] = system: Bacillus subtilis ATCC 6633
[36] = system: Salmonella enterica subsp. enterica serovar Enteritidis BNCC 103134

- MIC [1]: ≥ 99.9 µM
- MIC [2]: > 99.9 µM
Compound: C[C@H](N)C(=O)N[C@H](C(=O)N[C@@H](CS)C(=O)N[C@@H](Cc1ccc(O)cc1)C(=O)N[C@H]1CSSC[C@@H](C(=O)N[C@@H](C)C(=O)N[C@H](C(=O)N[C@@H](CCCN=C(N)N)C(=O)O)[C@@H](C)O)NC(=O)[C@H](CCCN=C(N)N)NC(=O)CNC(=O)[C@H]([C@@H](C)O)NC(=O)[C@H](CCCN=C(N)N)NC1=O)[C@@H](C)O [ATCYCRTGRCATR]

- MIC (Staphylococcus aureus): 64 µM and 100 µM
- MIC [3]: 4 µM and > 2.01 µM
- MIC [4]: 1.56 µM (≈ 3.41 µg/mL)
- MIC [5]: 16 µM (≈ 35 µg/mL)
- MIC [6]: > 100 µM
- MIC [7]: 1.56 µM (≈ 3.41 µg/mL)
- MIC [8]: 4.03 µM (≈ 8.8 µg/mL)
- MIC (Pseudomonas aeruginosa): 4 µM (≈ 8.74 µg/mL)
- MIC [9]: 0.125 µM (≈ 0.273 µg/mL)
- MIC [10]: 8 µM (≈ 17.5 µg/mL)
- MIC [11]: 8 µM (≈ 17.5 µg/mL)
- MIC [2]: 4 µM and 3.12 µM
- MIC (Candida albicans): 2.83 µM (≈ 6.18 µg/mL)
- MIC (Staphylococcus hominis): 1 µM (≈ 2.18 µg/mL)
- MIC [12]: 2 µM (≈ 4.37 µg/mL)
- MIC [13]: 3.12 µM (≈ 6.82 µg/mL)
Compound: CC[C@H](C)[C@H](NC(=O)CN)C(=O)N[C@@H](Cc1ccccc1)C(=O)N[C@@H](CO)C(=O)N[C@@H](CCCCN)C(=O)N[C@@H](CC(C)C)C(=O)N[C@@H](C)C(=O)NCC(=O)N[C@@H](CCCCN)C(=O)N[C@@H](CCCCN)C(=O)N[C@H](C(=O)N[C@@H](CCCCN)C(=O)N[C@@H](CC(N)=O)C(=O)N[C@@H](CC(C)C)C(=O)N[C@@H](CC(C)C)C(=O)N[C@H](C(=O)N[C@@H](CO)C(=O)NCC(=O)N[C@@H](CC(C)C)C(=O)N[C@@H](CCCCN)C(=O)NCC(N)=O)[C@@H](C)CC)[C@@H](C)CC [GIFSKLAGKKIKNLLISGLKG]

- MIC [14]: ≥ 87 µM
- MIC [15]: ≥ 32 µM
- MIC [16]: ≥ 87 µM
- MIC [17]: ≥ 64 µM
- MIC [18]: ≥ 64 µM
- MIC [19]: ≥ 32 µM
- MIC [20]: ≥ 87 µM
- MIC [21]: 8 µM (≈ 22.8 µg/mL)
- MIC [22]: ≥ 64 µM
- MIC [23]: ≥ 64 µM
- MIC [24]: ≥ 64 µM
- MIC [25]: ≥ 32 µM
- MIC [26]: ≥ 64 µM
- MIC [27]: ≥ 64 µM
- MIC [28]: ≥ 87 µM
- MIC [29]: ≥ 64 µM
Compound: CC(C)[C@H](NC(=O)[C@H](CCCCN)NC(=O)[C@H](CCCN=C(N)N)NC(=O)[C@H](CCCCN)NC(=O)[C@H](CCCCN)NC(=O)[C@H](CCCCN)NC(=O)[C@@H]1CCCN1C(=O)[C@H](CCC(N)=O)NC(=O)[C@H](CO)NC(=O)[C@H](Cc1c[nH]c2ccccc12)NC(=O)[C@H](CCC(=O)O)NC(=O)[C@@H](NC(=O)[C@H](Cc1c[nH]c2ccccc12)NC(=O)[C@H](Cc1c[nH]c2ccccc12)NC(=O)[C@@H](NC(=O)[C@H](CCC(=O)O)NC(=O)[C@H](Cc1c[nH]c2ccccc12)NC(=O)[C@H](Cc1c[nH]c2ccccc12)NC(=O)[C@@H](NC(=O)[C@H](CCC(=O)O)NC(=O)[C@@H](N)CCCCN)[C@@H](C)O)[C@@H](C)O)[C@@H](C)O)C(=O)O [KETWWETWWTEWSQPKKKRKV]

- MIC (Klebsiella pneumoniae): > 64 µM
- MIC [3]: > 64 µM
- MIC [30]: ≥ 64 µM
- MIC [31]: ≥ 64 µM
- MIC [7]: > 64 µM
- MIC (Acinetobacter baumannii): ≥ 64 µM
- MIC (Pseudomonas aeruginosa): > 64 µM
- MIC [32]: ≥ 64 µM
- MIC (Escherichia coli K88): ≥ 64 µM
- MIC [33]: ≥ 64 µM
- MIC (Escherichia coli): > 64 µM
- MIC [2]: > 64 µM
- MIC (Escherichia coli K99): ≥ 64 µM
- MIC [34]: > 64 µM
- MIC (Escherichia coli UB1005): ≥ 64 µM
Compound: CC(C)[C@H](N)C(=O)N[C@@H](CCCCN)C(=O)N1CCC[C@H]1C(=O)N[C@H](C(=O)N[C@H](C(=O)N[C@@H](CCCCN)C(=O)N1CCC[C@H]1C(=O)N[C@H](C(=O)N[C@H](C(=O)N[C@@H](CCCCN)C(=O)N1CCC[C@H]1C(=O)N[C@H](C(=O)N[C@H](C(=O)N[C@@H](CCCCN)C(=O)N1CCC[C@H]1C(=O)N[C@H](C(=O)N[C@H](C(=O)N[C@@H](CCCCN)C(=O)N1CCC[C@H]1C(=O)N[C@H](C(=O)N[C@H](C(=O)N[C@@H](CCCCN)C(=O)N1CCC[C@H]1C(=O)N[C@H](C(N)=O)C(C)C)C(C)C)C(C)C)C(C)C)C(C)C)C(C)C)C(C)C)C(C)C)C(C)C)C(C)C)C(C)C [VKPVVKPVVKPVVKPVVKPVVKPV]

Compound: NC(=O)C[C@H](NC(=O)[C@H](Cc1cnc[nH]1)NC(=O)[C@H](CC(N)=O)NC(=O)[C@@H](N)Cc1ccc(O)cc1)C(=O)N[C@@H](Cc1ccccc1)C(=O)O [YNHNF]
- MIC [35]: ≥ 300 µM
- MIC [6]: 300 µM (≈ 208 µg/mL)
- MIC [7]: 150 µM (≈ 104 µg/mL)
- MIC [36]: ≥ 300 µM

— DBAASP
